Reference: PubChem BioAssay AID850 (SRMLSC, 2007)
Calls of active or inactive are those of the source. How the calls were made is not given here.

Tests used:
[1] = yeast lifespan-shortening chemical project counter-assay, dose-response inhibition of growth under permissive conditions (AID 850); settings: Saccharomyces cerevisiae growth inhibition, permissive control, measured here: maximum growth inhibition, stronger effect = higher value;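 further: growth read as optical density after one day of incubation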
[2] = system: Saccharomyces cerevisiae growth inhibition, permissive control; assay: as above

| Structure (SMILES) | inhibition ([1]; at 50 µM) [%] | IC50 [2] | further results |
| --- | --- | --- | --- |
| Fc1ccc(N/N=C2/CC(c3ccccc3)Oc3ccccc32)c(F)c1 (stereo unspecified) | 95.9 | 25.9 µM | – |
| CC/C(C)=N/Nc1cccc([N+](=O)[O-])c1 | 98.4 | 4.11 µM | – |
| N=c1n(CCN2CCOCC2)c2ccccc2n1CC(=O)c1ccc(Cl)c(Cl)c1 | 61.4 | 35.4 µM | – |
| Clc1ccc(CSC(Cn2ccnc2)c2ccc(Cl)cc2Cl)cc1 (stereo unspecified) | 99.4 | 0.365 µM | – |
| Cc1nc2ccc(C(=O)O)cc2[nH]1 | – | > 100 µM (inactive) | inhibition ([1]; at 0.391 µM): 27.5% |
| O=c1cc(-c2ccccc2)n(S(=O)(=O)c2ccccc2)o1 | – | > 100 µM (inactive) | inhibition ([1]; at 0.195 µM): 2.71% |
| CC(C)CN=Cc1c(O)c([N+](=O)[O-])cc2oc3c(c12)CCCC3 | 60.1 | 41 µM | – |
| O=C(CCSc1nnc(-c2ccncc2)o1)Nc1ccc(Cl)cc1 | – | 8.46 µM | inhibition ([1]; at 12.5 µM): 86.9% |
| COc1ccc(Nc2cnn(-c3nc4ccccc4s3)c(=O)c2Cl)cc1 | 60.8 | 44.2 µM | – |
| O=c1c2sc(-c3ccccc3)cc2nc2n1CCC2 | 83.4 | 14.6 µM | – |
| CC(=O)NC(=S)c1c(N)n(Cc2ccccc2)c(=O)n(C)c1=O | – | > 100 µM (inactive) | inhibition ([1]; at 3.125 µM): 7.99% |
| N/C(Cc1ccc(Cl)cc1)=N\OC(=O)C1CCCCC1 | 98.8 | 15.8 µM | – |
| COC(=O)CSCc1nc2ccccc2[nH]c1=O | – | > 100 µM (inactive) | inhibition ([1]; at 1.563 µM): 20.2% |
| Oc1c(CN2CCc3ccccc3C2)cc(Cl)c2cccnc12 | 101 | 11.5 µM | – |
| N#Cc1ccccc1NC(=O)c1ccc2c(Cl)c3c(nc2c1)CCCC3 | – | > 100 µM (inactive) | inhibition ([1]; at 3.125 µM): 13.6% |
| CCC(=O)NC(c1ccc(C)cc1)c1cc([N+](=O)[O-])c2cccnc2c1O (stereo unspecified) | 60.6 | 43.5 µM | – |
| Oc1ccc(Cl)cc1Cc1cc(Cl)ccc1O | 99 | 25.8 µM | – |
| COC(=O)CSC1=NS(=O)(=O)c2ccccc21 | – | > 100 µM (inactive) | inhibition ([1]; at 12.5 µM): 27.4% |
| CC(C)(C)n1nc(-c2ccc(F)cc2)c2c(N)ncnc21 | – | < 0.098 µM | inhibition ([1]; at 25 µM): 86.7% |
| NC(=O)c1ccc(N=Cc2ccc([N+](=O)[O-])s2)cc1 | 101 | 11 µM | – |
| CC12C(=O)N(c3cccc4cccnc34)C(=O)C1C1C=CC2C1 (stereo unspecified) | – | > 100 µM (inactive) | inhibition ([1]; at 0.781 µM): 13.8% |

| Structure (SMILES) | inhibition ([1]; at 50 µM) [%] | IC50 [2] | further results |
| --- | --- | --- | --- |
| Cc1ccc(O)c(-c2cc(-c3cccc(F)c3)n[nH]2)c1 | 96.9 | 25 µM | – |
| O=C1NCCCC1C(=O)N/N=C/c1cccc(O)c1 (stereo unspecified) | – | > 100 µM (inactive) | inhibition ([1]; at 1.563 µM): 16% |
| Cc1cccc(C(=O)NC(=S)NNC(=O)c2cccs2)c1 | 76 | 19.9 µM | – |
| CCOC(=O)C(=NCCCN(C)C)NNc1ccc(Br)cc1 | 97.4 | 5.8 µM | – |
| CC(C)(C)c1nnc(N/N=C/c2cc(Br)ccc2O)n(N)c1=O | 50.9 | 49.9 µM | – |
| c1cn2cc(-c3ccc4c(c3)OCO4)nc2s1 | 27.3 | > 100 µM (inactive) | – |
| Cc1cc(C)nc(/N=c2/ssnc2Cl)c1 | – | > 100 µM (inactive) | inhibition ([1]; at 6.25 µM): 29.2% |
| CCOC(=O)c1ccc(-n2[nH]c(-c3ccccc3)cc2=O)cc1 | – | 47.7 µM | inhibition ([1]; at 12.5 µM): 47.7% |
| Cc1ncc(CC(=O)n2cc(C(=O)c3cc(Cl)ccc3O)cn2)s1 | 100 | 5.42 µM | – |
| CC(C)(C)n1nc(-c2ccc(Cl)cc2)c2c(N)ncnc21 | 80.7 | 1.1 µM | – |
| O=C(O)c1ccc2c3c(ncnc13)-c1ccccc1C2=O | 98.6 | 5.54 µM | – |
| O=C(CC(O)(C(F)(F)F)C(F)(F)F)Nc1ccc(Cl)c(Cl)c1 | 92.8 | 19.2 µM | – |
| CCN1/C(=C/c2ccc3cc(C)ccc3[n+]2CC)Sc2ccccc21 | 99.4 | 3.44 µM | – |
| CN1C(=O)C(O)(CC(=O)c2ccccc2O)c2cc(Br)ccc21 (stereo unspecified) | – | > 100 µM (inactive) | inhibition ([1]; at 0.195 µM): 17.2% |
| O=C(Nc1nc(-c2ccccn2)cs1)c1ccc(Cl)s1 | – | 2.09 µM | inhibition ([1]; at 12.5 µM): 91.4% |
| Cc1ccc(N/N=C/c2c(O)cc(C)oc2=O)cc1 | 99.4 | 11.8 µM | – |
| O=C(OCn1ncc(Br)c(Br)c1=O)c1ccc(F)cc1 | – | 7.71 µM | inhibition ([1]; at 12.5 µM): 78.7% |
| COc1ccc(-c2nncnn2)cc1 | 99.8 | 7.1 µM | – |
| CCc1cccc(C)c1NC(=S)NCc1ccc2[nH]c(C)cc2c1 | 8.77 | > 100 µM (inactive) | – |
| C=C(C)COc1ccc(-c2[nH]ncc2-c2ccccc2OC)c(O)c1 | – | > 100 µM (inactive) | inhibition ([1]; at 0.781 µM): 23% |
| C=CCN1C(=O)/C(=C/c2cccs2)C(=O)NC1=S | 99.8 | 6.15 µM | – |

| Structure (SMILES) | inhibition ([1]; at 50 µM) [%] | IC50 [2] | further results |
| --- | --- | --- | --- |
| CCCc1ccc(Oc2cn[nH]c2-c2ccc(O)c(C)c2O)cc1 | – | 7.32 µM | inhibition ([1]; at 12.5 µM): 101% |
| Cc1cc(C)cc(NS(=O)(=O)c2cnc(Cl)c(Cl)c2)c1 | – | > 100 µM (inactive) | inhibition ([1]; at 12.5 µM): 19.5% |
| O=[N+]([O-])c1cc(CN2CCCC2)c2cccnc2c1O | 21 | > 100 µM (inactive) | – |
| OC(Cn1cncn1)(c1ccccc1)c1ccccc1 | – | 6.82 µM | inhibition ([1]; at 12.5 µM): 90.3% |
| CCOc1ccc(/C=C/C(=O)c2cc(Br)ccc(=O)c2O)cc1 | 89.6 | 16.7 µM | – |
| CCOC(=O)c1c(N)sc2c(OC)c(Br)ccc12 | – | > 100 µM (inactive) | inhibition ([1]; at 3.125 µM): 24.4% |
| COc1cc(C(=O)NC(=S)NNC(=O)c2cnccn2)cc(OC)c1OC | 59.3 | 23.3 µM | – |
| c1ccc(-c2nnc(-c3ccccn3)nc2NC2CCCCC2)cc1 | 99.6 | 12.6 µM | – |
| CCOc1ccc(-c2[nH]ncc2Oc2cccc(OC)c2)c(O)c1 | 28.1 | > 100 µM (inactive) | – |
| O=C1c2ccccc2C(=O)N1Cc1ccco1 | – | > 100 µM (inactive) | inhibition ([1]; at 25 µM): 8.88% |
| Cc1cc(C(=O)COC(=O)c2ccc[nH]c2=O)c(C)n1-c1ccc(Br)cc1 | 4.13 | > 100 µM (inactive) | – |
| Cc1ccc(/C=C/C(=O)c2ccccc(=O)c2O)c(C)c1 | – | 6.08 µM | inhibition ([1]; at 25 µM): 101% |
| O=c1cc(-c2ccccc2)[nH]n1-c1nc2ccccc2[nH]1 | 97.3 | 13.3 µM | – |
| CCCn1c(C(C)NC(C)=O)nc2ccccc21 (stereo unspecified) | – | > 100 µM (inactive) | inhibition ([1]; at 12.5 µM): 9.66% |
| c1ccc2c(c1)C(=Nn1cnnc1)c1ccccc1-2 | – | > 100 µM (inactive) | inhibition ([1]; at 0.391 µM): 7.85% |
| CNC(=S)N/N=C(\C)c1ccc(N2CCOCC2)cc1 | – | > 100 µM (inactive) | inhibition ([1]; at 0.195 µM): 9.86% |
| Cc1cc(/C=N/n2cnnc2)c(C)n1-c1ccc(OCc2ccc(Cl)cc2Cl)cc1 | – | > 100 µM (inactive) | inhibition ([1]; at 25 µM): 25.7% |
| COc1ccc(-c2n[nH]c(C)c2-c2ccc(Cl)cc2)c(O)c1 | 99 | 33.9 µM | – |
| Cc1ccc(N/N=C(\C#N)C(N)=S)c(C)c1 | – | > 100 µM (inactive) | inhibition ([1]; at 25 µM): 4.57% |
| Cc1ccc(S(=O)(=O)Nc2ccc(SC(F)F)cc2)c(C)c1 | – | > 100 µM (inactive) | inhibition ([1]; at 0.781 µM): 21.4% |
| COC1=C(N)C(=O)c2nc(-c3nc(C(=O)O)c(C)c(-c4ccc(OC)c(OC)c4O)c3N)ccc2C1=O | 98.7 | 0.463 µM | – |

| Structure (SMILES) | inhibition ([1]; at 50 µM) [%] | IC50 [2] | further results |
| --- | --- | --- | --- |
| C=CCn1c(C)cc(C(=O)CSc2nnc(NCc3ccccc3)s2)c1C | 22.4 | > 100 µM (inactive) | – |
| CCCn1c(CNc2ccccc2O)nc2ccccc21 | 18.9 | > 100 µM (inactive) | – |
| CCc1ccc(S(=O)(=O)NCCc2cn3ccsc3n2)s1 | – | > 100 µM (inactive) | inhibition ([1]; at 25 µM): 10.4% |
| CC(Oc1ccc2ccccc2c1)C(=O)NNC(=S)NC(=O)c1ccco1 (stereo unspecified) | 98.6 | 11.3 µM | – |
| Cc1ccc(-c2nc(N)sc2-c2ccccc2)cc1C | – | > 100 µM (inactive) | inhibition ([1]; at 6.25 µM): 16% |
| COc1ccccc1OCC(=O)n1cc(C(=O)c2cc(Cl)cc(Cl)c2O)cn1 | 100 | 4.72 µM | – |
| O=C(O)c1cc2c(s1)-c1ccccc1OC2 | – | > 100 µM (inactive) | inhibition ([1]; at 0.195 µM): 15.9% |
| O=C(Nc1cccc(C(F)(F)F)c1)C(Sc1cccc[n+]1[O-])c1ccccc1 (stereo unspecified) | 90.2 | 31.4 µM | – |
| Cc1c(Cl)cccc1N=Cc1ccc([N+](=O)[O-])s1 | 9.36 | > 100 µM (inactive) | – |
| O=C1C2C3C=CC(CO)(O3)C2C(=O)N1c1ccccc1-c1ccccc1 (stereo unspecified) | – | > 100 µM (inactive) | inhibition ([1]; at 6.25 µM): 19.9% |
| Cc1oc(-c2ccc3c(c2)OCCO3)cc1C(=O)O | – | 47.8 µM | inhibition ([1]; at 25 µM): 48.3% |
| Cc1ccc(C(=O)OCn2ncc(Cl)c(Cl)c2=O)cc1 | 85.2 | 36.4 µM | – |
| O=C(OCn1ncc(Br)c(Br)c1=O)c1ccccc1Cl | – | > 100 µM (inactive) | inhibition ([1]; at 0.781 µM): 10.5% |
| O=S(=O)(NC1CC2CCC1C2)c1ccc(Br)s1 (stereo unspecified) | – | 1.28 µM | inhibition ([1]; at 12.5 µM): 99% |
| CCCCCCOC(=O)Sc1nc2ccccc2o1 | 99 | 11.7 µM | – |
| O=C1c2cccc3cccc(c23)C(=O)N1c1cccnc1 | 27.9 | > 100 µM (inactive) | – |
| Cc1ccc(-n2cnc3cc(NCc4cccs4)ccc32)cc1 | 53.2 | 45.8 µM | – |
| Cc1ccc(NC(=S)Nc2ccc(Cl)c(Cl)c2)c(OC(F)F)c1 | 76 | 24.8 µM | – |
| COc1ccc(/C=C/C(=O)c2cc(Br)ccc(=O)c2O)cc1 | 93.6 | 16.1 µM | – |
| COc1cc(Br)cc(/C=N/c2ncn[nH]2)c1O | 97.8 | 18.3 µM | – |
